Measured values taken from patent publication US8569295B2, “Bicyclic urea compounds” (Merck Patent GmbH, priority 2009, dated 2013).

Tests used:
GST-Aurora A = target: T1, GST-Aurora A (Homo sapiens, UniProt O14965); assay: Aurora A kinase biochemical mobility shift assay (Caliper LC3000 / Desktop Profiler); settings: AK A (Aurora kinase A) inhibition
T1 construct: N-terminal GST fusion with full length Aurora A (1-403 amino acids); purchased Carna Biosciences 05-101
T1 sequence (O14965 1-403): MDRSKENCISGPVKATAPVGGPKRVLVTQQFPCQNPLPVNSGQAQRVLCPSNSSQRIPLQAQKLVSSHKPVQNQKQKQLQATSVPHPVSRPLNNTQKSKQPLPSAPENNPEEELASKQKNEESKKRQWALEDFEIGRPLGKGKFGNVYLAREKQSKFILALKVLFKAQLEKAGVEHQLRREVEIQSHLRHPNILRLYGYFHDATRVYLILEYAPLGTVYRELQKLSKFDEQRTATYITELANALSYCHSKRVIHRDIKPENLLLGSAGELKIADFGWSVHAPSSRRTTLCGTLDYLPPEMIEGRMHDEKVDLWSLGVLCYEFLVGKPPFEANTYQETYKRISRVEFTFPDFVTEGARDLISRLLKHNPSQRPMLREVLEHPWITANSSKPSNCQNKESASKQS
Procedure: (§1) The Aurora assays described here are performed on two Caliper Life Sciences systems: the LC3000 and the Desktop Profiler. The RON kinase assays are performed on the Desktop Profiler only. These provide data on enzyme activity via measurement of the relative amounts of phosphorylated or unphosphorylated fluorescently labelled substrate peptide at the end of an enzymatic reaction. These different states of peptide are resolved by applying a potential difference across the sample. The presence of the charged phosphate group on the product (as opposed to the substrate) causes a different peptide mobility between the two peptides. This is visualized by excitation of the fluorescent label on the substrate and product peptides and represented as peaks within the analysis software.
In order to measure inhibitor activity of Aurora A inhibitors in the Caliper Life Sciences LC3000, a TTP Mosquito liquid handling instrument is used to place 0.25 ul of the appropriate concentration of inhibitor in 100% DMSO (for a dose response curve calculation) into each well of a 384-well plate. To this reaction components are added to a final volume of 25 ul: • 0.067 ng/ul GST-Aurora A (Carna Biosciences 05-101. N-terminal GST fusion with full length Aurora A (1-403 amino acids), accession number NP_940835.1). • 15 uM ATP (Fluka, 02055) • 1 mM DTT (Sigma, D0632) • 1 mM MgCl2 (Sigma, M1028) • 1 uM substrate peptide (sequence FITC-LRRASLG-(CONH2), synthesized by Tufts Peptide Synthesis service. • 100 mM HEPES pH 7.5 (Calbiochem, 391338) • 0.015% Brij-35 (Sigma, B4184)
The reaction is incubated for 90 min at 25 C, and then stopped by the addition of 70 ul of Stop buffer (100 mM HEPES pH 7.5, 0.015% Brij-35, 10 mM EDTA (Sigma, E7889)).
The plate is read on a Caliper LC3000 in an Off-Chip mobility shift assay format, using the following parameters for a 12-sipper chip: screening pressure −1.8 psi, upstream voltage −2700, downstream voltage −1000. These conditions cause unphosphorylated substrate and phosphorylated product peptide to resolve as separate peaks allowing direct measurement of percentage of conversion of substrate to product. The percent conversion can be plotted against concentration of inhibitor to produce a sigmoidal dose response curve, from which an IC50 can be calculated using XLFit for Microsoft Excel.
(§2) The Desktop Profiler utilizes the same priniciple as the LC3000 for calculating percentage conversion of a substrate to product. Caliper Life Sciences provides proprietary flash frozen pre-made 384 well plates containing selected kinases. Each column in the 384 well plate contains a particular selected kinase. A second plate, the ‘substrate plate’ contains a mix of fluorescently labeled peptide substrate and ATP. These are arranged in columns so that transfer for substrate plate to enzyme plate provides the correct enzyme with the correct substrate/ATP concentration. Compounds are added to a thawed enzyme plate in the desired format, in single concentrations. Reactions are initiated by transfer of the substrate/ATP mix from the substrate plate. The enzyme plate is incubated for 90 minutes at 25 C. The reaction is stopped by addition of 70 ul of Stop Buffer (100 mM HEPES pH 7.5, 0.015% Brij-35, 10 mM EDTA (Sigma, E7889)).
(§3) Reading of the plate in the Profiler is identical to the LC3000, and the ratio between substrate and product peaks provides the activity of the enzyme in that well. This is best represented by a plate heat map which colors each well by percent inhibition as compared to positive and negative controls (no inhibitors and no ATP respectively).

RON kinase = target: T2, RON kinase (Homo sapiens, UniProt Q04912); assay: RON kinase biochemical mobility shift assay (Caliper Desktop Profiler); settings: RON kinase inhibition
T2 construct: purchased Caliper Life Sciences
Procedure: as §1, §2, §3

normal human cell growth = settings: in vitro, normal human cells vs tumor cells of various origins; cited from earlier work

T2 sequence (Q04912 25-1400): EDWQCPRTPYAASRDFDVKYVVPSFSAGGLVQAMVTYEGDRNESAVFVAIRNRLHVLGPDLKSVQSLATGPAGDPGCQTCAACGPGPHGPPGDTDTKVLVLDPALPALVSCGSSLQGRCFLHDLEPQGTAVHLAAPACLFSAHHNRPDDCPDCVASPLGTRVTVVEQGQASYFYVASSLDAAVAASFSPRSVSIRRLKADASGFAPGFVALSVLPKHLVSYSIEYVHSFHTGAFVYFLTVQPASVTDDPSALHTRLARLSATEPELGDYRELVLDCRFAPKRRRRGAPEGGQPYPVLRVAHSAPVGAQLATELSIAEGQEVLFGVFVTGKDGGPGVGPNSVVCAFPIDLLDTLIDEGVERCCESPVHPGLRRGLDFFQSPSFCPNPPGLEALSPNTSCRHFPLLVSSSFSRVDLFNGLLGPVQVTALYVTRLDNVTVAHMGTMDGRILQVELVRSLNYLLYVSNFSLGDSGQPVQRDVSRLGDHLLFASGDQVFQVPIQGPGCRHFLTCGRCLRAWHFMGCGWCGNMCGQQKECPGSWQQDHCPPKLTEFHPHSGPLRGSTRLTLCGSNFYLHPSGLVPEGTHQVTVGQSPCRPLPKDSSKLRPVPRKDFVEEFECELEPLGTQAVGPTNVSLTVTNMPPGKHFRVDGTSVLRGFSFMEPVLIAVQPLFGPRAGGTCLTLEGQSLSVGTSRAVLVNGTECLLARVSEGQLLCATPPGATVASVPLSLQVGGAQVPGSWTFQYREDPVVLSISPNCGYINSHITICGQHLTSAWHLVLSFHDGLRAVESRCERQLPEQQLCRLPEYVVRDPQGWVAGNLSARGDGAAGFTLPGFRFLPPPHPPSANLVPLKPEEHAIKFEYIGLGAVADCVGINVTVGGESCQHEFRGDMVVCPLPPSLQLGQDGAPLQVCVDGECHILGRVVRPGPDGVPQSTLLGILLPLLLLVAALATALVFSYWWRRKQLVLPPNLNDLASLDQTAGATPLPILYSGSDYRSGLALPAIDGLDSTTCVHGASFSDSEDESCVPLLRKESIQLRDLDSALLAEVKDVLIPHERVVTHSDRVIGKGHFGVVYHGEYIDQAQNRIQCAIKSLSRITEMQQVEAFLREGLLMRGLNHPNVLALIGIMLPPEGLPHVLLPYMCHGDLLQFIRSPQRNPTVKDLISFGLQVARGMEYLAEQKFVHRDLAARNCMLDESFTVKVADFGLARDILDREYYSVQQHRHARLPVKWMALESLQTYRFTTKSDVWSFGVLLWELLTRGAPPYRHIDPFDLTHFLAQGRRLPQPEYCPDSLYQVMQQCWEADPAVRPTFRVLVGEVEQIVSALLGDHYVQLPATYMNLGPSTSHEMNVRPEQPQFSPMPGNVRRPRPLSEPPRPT

| Compound | IC50 (GST-Aurora A) | IC50 (RON kinase) | fold less effective at inhibiting normal human cell growth than tumor cell proliferation (normal human cell growth) |
| --- | --- | --- | --- |
| O=C(Nc1cccc(Cl)c1)Nc1ccc(Oc2ccnc3c2CNC(=O)N3)c(F)c1 [Example 67, N-(3-chlorophenyl)-N′-{3-fluoro-4-[(2-oxo-1,2,3,4-tetrahydropyrido[2,3-d]pyrimidin-5-yl)oxy]phenyl}urea] | 10 to 100 nM | 10 to 100 nM |  |
| O=C1NCc2c(Oc3ccc(NC(=O)c4cccc(Br)c4)cc3F)ccnc2N1 [Example 66, 3-bromo-N-{3-fluoro-4-[(2-oxo-1,2,3,4-tetrahydropyrido[2,3-d]pyrimidin-5-yl)oxy]phenyl}-benzamide] | 10 to 100 nM | 10 to 100 nM |  |
| O=C1NCc2c(Oc3ccc(NC(=O)c4cc(Cl)cnc4Cl)cc3F)ccnc2N1 [Example 65, 2,5-dichloro-N-{3-fluoro-4-[(2-oxo-1,2,3,4-tetrahydropyrido[2,3-d]pyrimidin-5-yl)oxy]phenyl}-nicotinamide] | 10 to 100 nM | 10 to 100 nM |  |
| O=C1NCc2c(Oc3ccc(NS(=O)(=O)c4ccccc4F)cc3F)ccnc2N1 [Example 70, 2-fluoro-N-{3-fluoro-4-[(2-oxo-1,2,3,4-tetrahydropyrido[2,3-d]pyrimidin-5-yl)oxy]phenyl}benzenesulfonamide] | 100 to 1000 nM | 100 to 1000 nM |  |
| Nc1nc(Nc2ccc(S(N)(=O)=O)cc2)nn1C(=O)c1c(F)cccc1F [JNJ-7706621] |  |  | about 10 fold |
| COc1cccc(S(=O)(=O)Nc2ccc(Oc3ccnc4c3CNC(=O)N4)c(F)c2)c1 [Example 71, N-{3-fluoro-4-[(2-oxo-1,2,3,4-tetrahydropyrido[2,3-d]pyrimidin-5-yl)oxy]phenyl}-3-methoxybenzenesulfonamide] | 100 to 1000 nM | 100 to 1000 nM |  |
